# Experimental data reported in paper PMC5111045, “Modulation of NMDA channel gating by Ca^2+ and Cd^2+ binding to the external pore mouth” (Scientific Reports, 2016).
# Key:
# [1] = target: T1, NMDA receptor channel (GluN1a variant/GluN2B), wild-type (Rattus norvegicus, UniProt P35439+Q00960); assay: Outside-out patch recordings of NMDA receptor currents, wild-type channel expressed in Xenopus oocytes; type: cell-based; conditions: 2 mM extracellular Ca2+
# T1 construct: expressed in transfected cells; host or cells: Xenopus laevis oocytes (cRNA injection)
# Experimental: (§1) The rat GluN1a variant and GluN2B cDNA clones were used in this study. Point mutations were made by site-directed mutagenesis using the QuickChange Site-Directed Mutagenesis kit (Stratagene, La Jolla, CA). Mutations were verified by DNA sequencing to ensure the lack of any inadvertent mutations. The capped cRNA transcripts were then synthesized using T7 and T3 mMESSAGE mMACHINE transcription kits (Ambion, Austin, TX), and were stored at −80 °C.
# (§2) This study was carried out in accordance with the ethical information guidelines of the National Taiwan University College of Medicine. The protocols for the care and use of animals were approved by the National Taiwan University College of Medicine and College of Public Health Institutional Animal Care and Use Committee (IACUC). All efforts were made to minimize animal suffering. Adult female Xenopus laevis were anesthetized, and ovarian lobes containing stage V or VI oocytes were removed. Oocytes were dispersed after manual disruption of the egg sac, and were digested for 1 hr with collagenase type I (2 mg/ml) to remove the follicular layer. A mixture of GluN1a variant and GluN2B cRNAs with a ratio of 1:5 (i.e., 0.1–4 ng of GluN1a variant and 0.5–20 ng of GluN2B) (Kashiwagi et al. 2002) was injected into oocytes. Oocytes were maintained in the culture medium (96 mM NaCl, 2 mM KCl, 1.8 mM MgCl2, 1.8 mM CaCl2, 5 mM HEPES, and 50 ug/ml gentamycin, pH 7.6) at 18 °C for 2–3 days before electrophysiological recordings.
# Oocytes were placed in a recording chamber containing Mg^2+-free bath solution (150 mM NaMeSO3, 5 mM NaCl, and 10 mM HEPES; pH 7.4). Outside-out patch recordings were obtained using fire-polished pipettes pulled from borosilicate capillaries (outer diameter, 1.55–1.60 mm; Hilgenberg, Malsfeld, Germany). Recording pipettes ([…]) were filled with the pipette solution containing 150 mM NaMeSO3, 5 mM NaCl, 5 mM EGTA, and 10 mM HEPES (pH 7.4). A seal was formed, and the outside-out patch configuration was obtained in Tyrode’s solution (150 mM NaCl, 4 mM KCl, 2 mM MgCl2, 2 mM CaCl2, and 10 mM HEPES; pH 7.4). The patch was then lifted from the bottom of the chamber and moved in front of a set of “theta glass” tubes (2.0 mm outer diameter pulled to an opening of ~300 μm in width; Warner Instrument, Hamden, CT) emitting external recording solutions. The standard external solution was Mg^2+-free Ca^2+-free Tyrode’s solution (pH 7.4), but 2 mM Ca^2+ or 0.1–100 μM Cd^2+ may be added to the external recording solution as specified in each different experimental condition. The glass-tube holder was connected to a stepper motor (SF-77B perfusion system, Warner Instrument) to achieve fast switch for rapid solution change. Drugs and salts were purchased from Sigma (St. Louis, MO). NMDA, glycine, and Cd^2+ were dissolved in water to make 100, 100, and 10 mM stock solutions, respectively. The stock solutions were then diluted into the external recording solution to make 1 to 100 μM Cd^2+, 1 to 300 μM NMDA, and 30 μM glycine. The NMDA currents were recorded at a membrane potential of −70 mV and at room temperature (~25 °C) with an […] amplifier, filtered at 1 kHz with a four-pole Bessel filter, digitized at 500 μs intervals, and stored using a Digidata-1322A analog/digital interface along with the pCLAMP software (all from MDS Analytical Technologies, Sunnyvale, CA). To plot the activation and the desensitization curves, a patch was moved from the NMDA- and glycine-free external solution to the external solution containing 0 to 100 μM NMDA and 30 μM glycine for 3 s (the desensitization prepulse), and then moved to another external solution containing 300 μM NMDA and 30 μM glycine for 3 s (the test pulse) before being moved back to the NMDA-free external solution again. The amplitude of the sustained currents in the desensitization prepulse in each different concentration of NMDA is normalized to the maximal current and plotted against the NMDA concentration to obtain the activation curve. […]
# [2] = target: T2, E661AE662A double mutant NMDA channel (Rattus norvegicus, UniProt P35439+Q00960, E661A/E662A); assay: Outside-out patch recordings, E661AE662A double mutant NMDA channel; type: cell-based; conditions: 2 mM extracellular Ca2+; n = 6, WT n = 9; P = 5.1*10^−5
# T2 construct: expressed in transfected cells; host or cells: Xenopus laevis oocytes (cRNA injection)
# Experimental: as §1, §2
# Oocytes were placed in a recording chamber containing Mg^2+-free bath solution (150 mM NaMeSO3, 5 mM NaCl, and 10 mM HEPES; pH 7.4). Outside-out patch recordings were obtained using fire-polished pipettes pulled from borosilicate capillaries (outer diameter, 1.55–1.60 mm; Hilgenberg, Malsfeld, Germany). Recording pipettes ([…]) were filled with the pipette solution containing 150 mM NaMeSO3, 5 mM NaCl, 5 mM EGTA, and 10 mM HEPES (pH 7.4). A seal was formed, and the outside-out patch configuration was obtained in Tyrode’s solution (150 mM NaCl, 4 mM KCl, 2 mM MgCl2, 2 mM CaCl2, and 10 mM HEPES; pH 7.4). The patch was then lifted from the bottom of the chamber and moved in front of a set of “theta glass” tubes (2.0 mm outer diameter pulled to an opening of ~300 μm in width; Warner Instrument, Hamden, CT) emitting external recording solutions. The standard external solution was Mg^2+-free Ca^2+-free Tyrode’s solution (pH 7.4), but 2 mM Ca^2+ or 0.1–100 μM Cd^2+ may be added to the external recording solution as specified in each different experimental condition. The glass-tube holder was connected to a stepper motor (SF-77B perfusion system, Warner Instrument) to achieve fast switch for rapid solution change. Drugs and salts were purchased from Sigma (St. Louis, MO). NMDA, glycine, and Cd^2+ were dissolved in water to make 100, 100, and 10 mM stock solutions, respectively. The stock solutions were then diluted into the external recording solution to make 1 to 100 μM Cd^2+, 1 to 300 μM NMDA, and 30 μM glycine. The NMDA currents were recorded at a membrane potential of −70 mV and at room temperature (~25 °C) with an […] amplifier, filtered at 1 kHz with a four-pole Bessel filter, digitized at 500 μs intervals, and stored using a Digidata-1322A analog/digital interface along with the pCLAMP software (all from MDS Analytical Technologies, Sunnyvale, CA). […]
# [3] = target: T3, T647A (GluN2B) mutant NMDA channel (Rattus norvegicus, UniProt P35439+Q00960, T647A); assay: Outside-out patch recordings, T647A (GluN2B) mutant NMDA channel; type: cell-based; conditions: 2 mM Ca2+; P = 0.028
# T3 construct: expressed in transfected cells; host or cells: Xenopus laevis oocytes (cRNA injection)
# Experimental: as §1, §2
# Oocytes were placed in a recording chamber containing Mg^2+-free bath solution (150 mM NaMeSO3, 5 mM NaCl, and 10 mM HEPES; pH 7.4). […] The NMDA currents were recorded at a membrane potential of −70 mV and at room temperature (~25 °C) with an […] amplifier, filtered at 1 kHz with a four-pole Bessel filter, digitized at 500 μs intervals, and stored using a Digidata-1322A analog/digital interface along with the pCLAMP software (all from MDS Analytical Technologies, Sunnyvale, CA). […]
# wild-type NMDA channel = system: wild-type NMDA channel; set-up: method as in PMID 12451122; conditions: 1 mM Ca2+; decreased from 73 pS; cited from earlier work
# [4] = system: triple mutant NMDA channel (three negatively charged DRPEER residues neutralized); set-up: method as in PMID 12451122; conditions: 1 mM Ca2+; decreased from 56 pS; cited from earlier work
# T1 sequence (Q00960 27-1482, other chains not shown): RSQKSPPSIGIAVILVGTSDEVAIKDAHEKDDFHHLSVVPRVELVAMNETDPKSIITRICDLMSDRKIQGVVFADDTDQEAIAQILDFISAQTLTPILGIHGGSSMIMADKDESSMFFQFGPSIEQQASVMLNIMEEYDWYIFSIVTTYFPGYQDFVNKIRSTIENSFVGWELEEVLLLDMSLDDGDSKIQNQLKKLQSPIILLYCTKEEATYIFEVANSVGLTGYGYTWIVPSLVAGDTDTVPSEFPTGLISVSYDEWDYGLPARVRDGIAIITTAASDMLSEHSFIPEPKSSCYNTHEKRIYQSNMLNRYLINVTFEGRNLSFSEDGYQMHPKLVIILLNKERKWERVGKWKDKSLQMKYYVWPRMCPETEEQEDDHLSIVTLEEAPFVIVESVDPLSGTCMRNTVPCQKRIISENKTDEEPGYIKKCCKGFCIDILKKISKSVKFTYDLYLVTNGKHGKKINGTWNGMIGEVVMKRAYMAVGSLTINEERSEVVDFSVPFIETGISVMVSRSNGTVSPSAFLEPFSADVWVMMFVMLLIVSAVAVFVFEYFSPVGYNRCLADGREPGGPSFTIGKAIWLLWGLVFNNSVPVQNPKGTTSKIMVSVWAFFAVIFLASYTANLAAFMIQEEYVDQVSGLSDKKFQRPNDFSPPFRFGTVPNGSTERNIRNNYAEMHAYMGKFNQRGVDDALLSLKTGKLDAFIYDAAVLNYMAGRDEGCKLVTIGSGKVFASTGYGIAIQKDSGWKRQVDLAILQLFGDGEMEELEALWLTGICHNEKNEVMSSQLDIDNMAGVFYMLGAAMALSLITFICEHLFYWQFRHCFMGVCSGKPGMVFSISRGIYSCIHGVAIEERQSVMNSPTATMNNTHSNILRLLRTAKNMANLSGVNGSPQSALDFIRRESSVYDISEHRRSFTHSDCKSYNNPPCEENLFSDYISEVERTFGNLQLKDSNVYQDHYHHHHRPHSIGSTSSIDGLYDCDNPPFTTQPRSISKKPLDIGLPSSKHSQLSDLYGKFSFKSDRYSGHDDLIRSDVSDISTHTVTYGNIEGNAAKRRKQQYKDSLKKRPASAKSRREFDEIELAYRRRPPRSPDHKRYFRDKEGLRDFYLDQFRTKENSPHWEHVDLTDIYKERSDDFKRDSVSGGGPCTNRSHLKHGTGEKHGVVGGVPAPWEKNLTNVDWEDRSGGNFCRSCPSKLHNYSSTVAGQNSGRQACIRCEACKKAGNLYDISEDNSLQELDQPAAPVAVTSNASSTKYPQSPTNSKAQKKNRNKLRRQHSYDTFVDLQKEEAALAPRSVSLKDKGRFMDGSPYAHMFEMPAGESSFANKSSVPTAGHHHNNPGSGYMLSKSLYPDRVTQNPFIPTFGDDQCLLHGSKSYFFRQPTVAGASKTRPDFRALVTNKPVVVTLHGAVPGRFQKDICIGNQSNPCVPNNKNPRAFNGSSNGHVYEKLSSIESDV
# T2 sequence (Q00960 27-1482, other chains not shown): as above
# T3 sequence (Q00960 27-1482 T647A, other chains not shown): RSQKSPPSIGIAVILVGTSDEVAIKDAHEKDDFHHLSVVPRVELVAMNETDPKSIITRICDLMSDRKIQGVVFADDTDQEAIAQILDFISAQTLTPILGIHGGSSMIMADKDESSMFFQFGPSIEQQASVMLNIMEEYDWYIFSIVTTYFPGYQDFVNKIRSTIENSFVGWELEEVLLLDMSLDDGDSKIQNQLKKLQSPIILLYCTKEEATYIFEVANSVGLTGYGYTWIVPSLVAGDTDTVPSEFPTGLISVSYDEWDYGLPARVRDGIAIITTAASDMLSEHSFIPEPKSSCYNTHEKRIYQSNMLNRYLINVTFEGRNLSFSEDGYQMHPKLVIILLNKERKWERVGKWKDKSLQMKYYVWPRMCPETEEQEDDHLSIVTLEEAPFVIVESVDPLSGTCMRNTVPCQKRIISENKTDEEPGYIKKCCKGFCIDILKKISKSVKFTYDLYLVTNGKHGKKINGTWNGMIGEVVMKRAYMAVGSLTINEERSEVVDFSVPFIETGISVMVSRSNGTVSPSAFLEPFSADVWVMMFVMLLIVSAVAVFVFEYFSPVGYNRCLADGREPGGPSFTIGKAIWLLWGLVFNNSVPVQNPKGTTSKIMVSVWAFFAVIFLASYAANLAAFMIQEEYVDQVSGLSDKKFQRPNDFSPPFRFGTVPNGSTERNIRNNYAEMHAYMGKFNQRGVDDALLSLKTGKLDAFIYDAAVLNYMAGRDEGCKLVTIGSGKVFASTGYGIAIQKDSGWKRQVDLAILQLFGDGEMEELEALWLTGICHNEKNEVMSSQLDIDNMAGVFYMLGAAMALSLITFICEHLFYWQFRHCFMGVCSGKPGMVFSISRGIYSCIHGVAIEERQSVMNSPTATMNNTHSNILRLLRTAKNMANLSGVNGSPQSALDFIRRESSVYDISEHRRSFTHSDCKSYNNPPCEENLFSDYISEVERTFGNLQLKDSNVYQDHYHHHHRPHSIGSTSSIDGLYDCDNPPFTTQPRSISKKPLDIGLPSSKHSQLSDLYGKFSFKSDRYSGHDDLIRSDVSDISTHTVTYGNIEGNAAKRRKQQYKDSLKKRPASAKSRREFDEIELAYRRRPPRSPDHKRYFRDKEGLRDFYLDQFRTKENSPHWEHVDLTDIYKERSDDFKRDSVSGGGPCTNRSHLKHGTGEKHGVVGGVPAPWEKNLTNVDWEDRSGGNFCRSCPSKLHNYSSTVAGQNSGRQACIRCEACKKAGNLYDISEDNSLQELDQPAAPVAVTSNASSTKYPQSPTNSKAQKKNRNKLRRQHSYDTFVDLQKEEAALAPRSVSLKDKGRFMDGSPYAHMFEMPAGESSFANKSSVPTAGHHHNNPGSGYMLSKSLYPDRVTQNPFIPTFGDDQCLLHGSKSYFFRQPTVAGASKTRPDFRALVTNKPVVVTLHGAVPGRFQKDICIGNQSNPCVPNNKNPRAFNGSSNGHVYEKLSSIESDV
structure (smiles),measurement,setting,value
[Ca+2] [Ca^2+],"effect on NMDAR current, cation present during the NMDA pulse",[1]; 300 μM NMDA plus 30 μM glycine,decreases the NMDAR current
same,"effect on NMDAR current peak, cation applied before but not during the NMDA pulse",[1]; closed channel,evident decrease of the NMDAR current peak
same,effect on sustained current (relative current) compared with WT channel,[2],significantly decreased
same,"relative hook current after wash-off of agonists and blocking cation, compared with WT channel",[3],significantly larger hook current
same,overall current flow through the NMDA channel in Ca2+,wild-type NMDA channel,41 pS
same,overall current flow through the NMDA channel in Ca2+,[4],45 pS
